These results are taken from patent US6541505B1, “Substituted (aminoiminomethyl or aminomethyl) benzoheteroaryl compounds” (Aventis Pharmaceuticals Inc., priority 1998, dated 2003).

Test system in the first data set: not given
Conditions: not given
The melting point is the temperature of the solid-liquid transition. On to `CCN(CC)CCCCNc1nccc(-c2ccc(C(=O)NCCc3ccc4[nH]cc(C(=N)N)c4c3)cc2)n1` [Example 1aaap, N-[2-(3-Carbamimidoyl-1H-indol-5-yl)ethyl]-4-[2-(4-diethylaminobutylamino)pyrimidin-4-yl]benzamide], for which the melting point is 73 to 76 °C.
For the compound `N=C(N)c1c[nH]c2ccc(CCNC(=O)c3ccc(-c4ccnc(NCCCCCCN5CCOCC5)n4)cc3)cc12` [Example 1aaaq, N-[2-(3-Carbamimidoyl-1H-indol-5-yl)ethyl]-4-[2-(6-morpholin-4-ylhexylamino)pyrimidin-4-yl]benzamide], the melting point was 129 to 130 °C.
Still for that read-out and setting: for `N=C(N)c1c[nH]c2ccc(CCNC(=O)c3ccc(-n4cccc4)nc3)cc12` [Example 1ab, N-(2-[3-Carbamimidoylindol-5-yl]ethyl)-6-pyrrol-1-ylnicotinamide] the value was 213 to 214 °C; for `N=C(N)c1c[nH]c2ccc(CCNC(=O)c3ccc(-n4cccn4)nc3)cc12` [Example 1ac, N-(2-[3-Carbamimidoylindol-5-yl]ethyl)-6-pyrazol-1-ylnicotinamide], 235 to 236 °C.
On the same count and under the same terms, for `COc1ccc(-c2ccc(C(=O)NCCc3ccc4c(c3)c(C(=N)N)cn4C)cc2)cn1` [Example 1ad, N-(2-[3-Carbamimidoyl-1-methylindol-5-yl]ethyl)-4-(6-methoxypyrid-3-yl)benzamide] the value was 237 to 238 °C; for `CN(C)CCn1cc(-c2ccc(C(=O)NCCc3ccc4[nH]cc(C(=N)N)c4c3)cc2)ccc1=O` [Example 1ap, N-(2-[3-Carbamimidoylindol-5-yl]ethyl)-4-(1-[2-dimethylaminoethyl]-6-oxo-1,6-dihydropyridin-3-yl)benzamide], 94 to 97 °C.
In turn, `N=C(N)c1c[nH]c2ccc(CCNC(=O)c3ccc(-c4ccc(=O)n(CC(N)=O)c4)cc3)cc12` [Example 1aq, N-(2-[3-Carbamimidoylindol-5-yl]ethyl)-4-(1-carbamoylmethyl-6-oxo-1,6-dihydropyridin-3-yl)benzamide] yielded a melting point of 244 to 245 °C.
`N=C(N)c1c[nH]c2ccc(CCNC(=O)c3ccc(-c4ccccn4)s3)cc12` [Example 1c, 5-(Pyrid-2-yl)-thiophene-2-carboxylic acid 2-(3-carbamimidoyl-5-indolyl)ethyl amide] returned a melting point of 198 to 200 °C.
`N=C(N)c1c[nH]c2ccc(CCNC(=O)c3ccc(-n4ccnc4)cc3)cc12` [Example 1g, N-(2-[3-Carbamimidoylindol-5-yl]ethyl)-4-imidazol-1-ylbenzamide] registered a melting point of 191 to 194 °C.
For the compound `N=C(N)c1c[nH]c2ccc(CCNC(=O)c3ccc(-c4cnc[nH]4)cc3)cc12` [Example 1h, N-(2-[3-Carbamimidoylindol-5-yl]ethyl)-4-(3H-imidazol-4-yl)benzamide], the melting point was 52 to 54 °C.
With `N=C(N)c1c[nH]c2ccc(CCNC(=O)c3ccc(-c4ncns4)cc3)cc12` [Example 1i, N-(2-[3-Carbamimidoylindol-5-yl]ethyl)-4-(1,2,4)thiadiazol-5-ylbenzamide], the melting point lay within 222 to 224 °C.
For the compound `COc1ccc(-c2ccc(C(=O)NCCc3ccc4[nH]cc(C(=N)N)c4c3)cc2)cn1` [Example 1p, N-(2-[3-Carbamimidoylindol-5-yl]ethyl)-4-(6-methoxypyrid-3-yl)benzamide], the melting point was in the range of 164 to 167 °C.
`N=C(N)c1c[nH]c2ccc(CCNC(=O)c3ccc(-c4ccc(=O)[nH]c4)cc3)cc12` [Example 1v, N-(2-[3-carbamimidoyl-1H-indol-5-yl]ethyl)-4-(6-oxo-1,6-dihydro-pyrid-3-yl)benzamide] had a melting point of 152 to 156 °C.
With `N=C(N)c1c[nH]c2ccc(CCNC(=O)c3ccc(NCCO)nc3)cc12` [Example 1z, N-(2-[3-Carbamimidoylindol-5-yl]ethyl)-6-(2-hydroxyethylamino)nicotinamide], the melting point fell in the range of 102 to 105 °C.

The subject of another data set is rabbit carotid artery air-drying injury model. Particulars: after vascular injury; cited from earlier work.
Consider `CC(=N)N1CC[C@H](Oc2ccc([C@H](Cc3ccc4ccc(C(=N)N)cc4c3)C(=O)O)cc2)C1` [DX-9065a], for which the neointimal proliferation result is “less neointimal proliferation”.
